Here are results for 23 compounds from patent EP4782449A1, “TRICYCLIC PYRIDINE COMPOUND ACTING AS SARM1 ENZYME ACTIVITY INHIBITOR, AND USE THEREOF” (Artivila (ShenZhen) Innovation Center, Ltd., priority 2023, dated 2025).

Structures are written as SMILES. pIC50: −log10 of the molar value. Like-named read-outs stand apart in the source and are kept apart here.

As usually defined, the pIC50 is −log10 of the IC50, conventionally taken in molar units.

The target of one experiment is T1, SARM1 (Homo sapiens, UniProt Q6SZW1).
T1 construct: inventors produced full-length SARM1 for NAD enzyme activity experiments, and used it for screening; His (C); made in house; host or cells: HEK293 cells, transient transfection; supernatant of digitonin lysate, no further purification described
T1 sequence (Q6SZW1 28-724): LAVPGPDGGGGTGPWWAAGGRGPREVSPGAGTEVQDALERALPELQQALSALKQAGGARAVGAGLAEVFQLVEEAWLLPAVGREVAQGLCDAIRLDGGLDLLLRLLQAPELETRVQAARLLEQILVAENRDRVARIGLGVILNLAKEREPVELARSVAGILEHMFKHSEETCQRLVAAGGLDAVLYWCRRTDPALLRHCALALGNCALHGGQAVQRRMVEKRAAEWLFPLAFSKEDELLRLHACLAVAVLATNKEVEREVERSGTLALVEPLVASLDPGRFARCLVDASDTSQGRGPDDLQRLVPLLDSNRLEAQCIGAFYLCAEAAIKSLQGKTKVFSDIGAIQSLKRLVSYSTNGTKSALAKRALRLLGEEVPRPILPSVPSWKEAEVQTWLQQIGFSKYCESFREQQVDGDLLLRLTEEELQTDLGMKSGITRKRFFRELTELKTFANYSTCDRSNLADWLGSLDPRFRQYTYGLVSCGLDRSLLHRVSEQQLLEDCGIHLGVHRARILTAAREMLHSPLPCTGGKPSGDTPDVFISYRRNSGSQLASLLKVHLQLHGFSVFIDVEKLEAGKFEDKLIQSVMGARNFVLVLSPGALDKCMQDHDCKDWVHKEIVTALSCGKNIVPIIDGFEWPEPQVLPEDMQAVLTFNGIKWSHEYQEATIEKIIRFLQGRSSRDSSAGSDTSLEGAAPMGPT
The experiment in a line: In vitro biochemical assay for inhibiting SARM1 enzyme activity (PC6 fluorescence, NADase). The note with it: full-length SARM1 from transfected HEK293 cells, 50 µM NAD, 50 µM PC6, 50 µM NMN activator, room temperature, 30 minutes. The gist of the method:
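Lysate supernatant from HEK293 cells transfected 48 hours with His-tagged SARM1 was obtained by 100 μM digitonin lysis and preincubated with inhibitor 10 minutes at room temperature.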

Experiment [1] has as its system dorsal root ganglion explants. Nature of the experiment: Axonal Wallerian degeneration assay in mouse DRG explant culture. Type of experiment: cell-based, C57BL/6 male mice. The note with it: 10 µM test compound, 2 hours pretreatment, axons transected, images at 0 hour and 24 hours. The gist of the method: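 Explants from 2-month-old male C57BL/6 mouse DRG were cultured 8 days in Neurobasal/B-27 with 10 ng/mL NGF. They were pretreated 2 h with 10 µM compound at 37°C, then axons were transected with a glass electrode. Axonal integrity was scored by script from bright-field images at 0 and 24 h.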

As for `O=C(NCc1ccc(Cl)c(F)c1)Nc1ccc2c(c1)COc1cnccc1-2` [Compound 68], the negative-log IC50 (pIC50) at SARM1 (read-out: IC50) was 6.00 to 7.00. In addition, in experiment [1], the “Degree of Protection Against Axonal Wallerian Degeneration” value (shortened to “Degree”) is “A (substantial protection (A) >50%)”.

As for `O=C1C(Cc2ccc3occc3c2)CCN1c1ccc2c(c1)COc1cnccc1-2` (stereo not shown) [Compound 57], the pIC50 at SARM1 (read-out: IC50) was 6.00 to 7.00. The “Degree” value in experiment [1] is “B (partial protection (B): 20% to 50%)”.

For the compound `O=C1C(Cc2ccc(F)cc2)CCN1c1ccc2c(c1)COc1cnccc1-2` (stereo not shown) [Compound 10, 3-(4-fluorobenzyl)-1-(6H-isochromeno[3,4-c]pyridin-8-yl)pyrrolidin-2-one], at SARM1 (read-out: IC50), the pIC50 is over 7.00. Moreover, in experiment [1], the “Degree” value is “A (substantial protection (A) >50%)”.

Regarding `O=C(NCc1cc(F)c(F)c(F)c1)Nc1ccc2c(c1)COc1cnccc1-2` [Compound 67], the pIC50 at SARM1 (read-out: IC50) was over 7.00. In experiment [1], the “Degree” value is listed as “A (substantial protection (A) >50%)”.

As to `O=C1C(Cc2ccc(F)cc2F)CCN1c1ccc2c(c1)COc1cnccc1-2` (stereo not shown) [Compound 11], at SARM1 (read-out: IC50), the negative logarithm of the IC50 (pIC50) is 5.00 to 6.00. The “Degree” value in experiment [1] is “A (substantial protection (A) >50%)”.

Regarding `O=C(CCc1ccccc1)Nc1cnc2c(c1)COc1cnccc1-2` [Compound 95], the pIC50 at SARM1 (read-out: IC50) was over 7.00. In addition, the “Degree” value in experiment [1] is recorded as “B (partial protection (B): 20% to 50%)”.

As to `O=C1C(Cc2ccc(F)cc2)CCN1c1cnc2c(c1)COc1cnccc1-2` (stereo not shown) [Compound 126], at SARM1 (read-out: IC50), the pIC50 was over 7.00. The “Degree” value in experiment [1] is given as “A (substantial protection (A) >50%)”.

Take `O=C1C(Cc2ccc(F)cc2)CCCN1c1ccc2c(c1)COc1cnccc1-2` (stereo not shown) [Compound 137]: the pIC50 on SARM1 (read-out: IC50) is 6.00 to 7.00. In experiment [1], the “Degree” value is reported as “A (substantial protection (A) >50%)”.

As for `O=C(CCc1cccc(F)c1)Nc1cnc2c(c1)COc1cnccc1-2` [Compound 94], the pIC50 on SARM1 (read-out: IC50) was over 7.00. The “Degree” value in experiment [1] is “A (substantial protection (A) >50%)”.

For `O=C(CCc1ccc(F)cc1F)Nc1ccc2c(c1)COc1cnccc1-2` [Compound 37], the pIC50 on SARM1 (read-out: IC50) was 6.00 to 7.00. Besides, the “Degree” value in experiment [1] is given as “A (substantial protection (A) >50%)”.

Regarding `O=C1C(Cc2ccc(Cl)nc2)CCN1c1ccc2c(c1)COc1cnccc1-2` (stereo not shown) [Compound 17], the pIC50 at SARM1 (read-out: IC50) was 6.00 to 7.00. The “Degree” value in experiment [1] is recorded as “B (partial protection (B): 20% to 50%)”.

`O=C(CCc1ccc(Cl)cc1F)Nc1ccc2c(c1)COc1cnccc1-2` [Compound 40]: on SARM1 (read-out: IC50), the pIC50 is 5.00 to 6.00. Also, the “Degree” value in experiment [1] was “A (substantial protection (A) >50%)”.

In the case of `O=C1C(Cc2ccc(Cl)s2)CCN1c1ccc2c(c1)COc1cnccc1-2` (stereo not shown) [Compound 7], on SARM1 (read-out: IC50), the pIC50 was 5.00 to 6.00. In addition, the “Degree” value in experiment [1] is on record as “A (substantial protection (A) >50%)”.

For `O=C1C(Cc2ccc(F)cc2)CCN1c1cc2c(cn1)-c1ccncc1OC2` (stereo not shown) [Compound 128], the pIC50 on SARM1 (read-out: IC50) was over 7.00. In addition, in experiment [1], the “Degree” value is “A (substantial protection (A) >50%)”.

On to `O=C1C(Cc2ccc(Cl)o2)CCN1c1ccc2c(c1)COc1cnccc1-2` (stereo not shown) [Compound 12], for which, on SARM1 (read-out: IC50), the pIC50 was 6.00 to 7.00. The “Degree” value in experiment [1] is recorded as “B (partial protection (B): 20% to 50%)”.

`O=C(CC1CCc2ccccc21)Nc1ccc2c(c1)COc1cnccc1-2` (stereo not shown) [Compound 76]: the pIC50 on SARM1 (read-out: IC50) was 6.00 to 7.00. In addition, in experiment [1], the “Degree” value is listed as “A (substantial protection (A) >50%)”.

As for `O=C(NCc1ccccc1)Nc1ccc2c(c1)COc1cnccc1-2` [Compound 71], the pIC50 on SARM1 (read-out: IC50) was 5.00 to 6.00. Also, the “Degree” value in experiment [1] is “B (partial protection (B): 20% to 50%)”.

For `O=C(CNc1ccc(F)cc1)Nc1ccc2c(c1)COc1cnccc1-2` [Compound 75], the pIC50 on SARM1 (read-out: IC50) is over 7.00. The “Degree” value in experiment [1] is listed as “B (partial protection (B): 20% to 50%)”.

Turning to `O=C(CCc1ccc(Cl)c(Cl)c1)Nc1ccc2c(c1)COc1cnccc1-2` [Compound 21], the pIC50 at SARM1 (read-out: IC50) is over 7.00. Besides, the “Degree” value in experiment [1] is “A (substantial protection (A) >50%)”.

For `N#Cc1ccc(CC2CCN(c3ccc4c(c3)COc3cnccc3-4)C2=O)cc1` (stereo not shown) [Compound 16], the pIC50 on SARM1 (read-out: IC50) was 5.00 to 6.00. Besides, in experiment [1], the “Degree” value is reported as “A (substantial protection (A) >50%)”.

For the compound `Fc1ccc(CNC(=S)Nc2ccc3c(c2)COc2cnccc2-3)cc1` [Compound 77, 1-(4-fluorobenzyl)-3-(6H-isochromeno[3,4-c]pyridin-8-yl)thiourea], the pIC50 on SARM1 was over 7.00. Moreover, the “Degree” value in experiment [1] is on record as “B (partial protection (B): 20% to 50%)”.

`O=C(Nc1ccc2c(c1)COc1cnccc1-2)OCc1ccc(F)cc1` [Compound 135]: the pIC50 at SARM1 (read-out: IC50) was 6.00 to 7.00. Further, the “Degree” value in experiment [1] is reported as “A (substantial protection (A) >50%)”.

As for `O=C1C(Cc2ccc(F)cc2)CN1c1ccc2c(c1)COc1cnccc1-2` (stereo not shown) [Compound 142, 3-(4-fluorobenzyl)-1-(6H-isochromeno[3,4-c]pyridin-8-yl)azetidin-2-one], the pIC50 at SARM1 (read-out: IC50) is 6.00 to 7.00. Moreover, in experiment [1], the “Degree” value is “A (substantial protection (A) >50%)”.
